Source: paper PMC9258070, “Establishment and evaluation of glucose-modified nanocomposite liposomes for the treatment of cerebral malaria” (Journal of Nanobiotechnology, 2022)
Where a name gives a salt, the structure may show the parent alone.

What was measured:
[1] = Brain biodistribution study (LC-MS); conditions: C57BL/6, mouse
Experimental: (§1) The C57BL/6 mouse cerebral malaria model was established according to the method of “In vivo antimalarial experiment”. The model mice were randomly divided into the intranasal administration group (na-ATS/TMP@lipoBX) and tail vein injection group (iv-ATS/TMP@lipoBX). The dosage of each administration group was artesunate (ATS) 15.6 mg/kg and tetramethylpyrazine hydrochloride (TMP) 20.8 mg/kg.
Mice were euthanized and the brains were dissected. The brain samples were homogenized by adding 4 times their weight of physiological saline to prepare a tissue homogenate. The brain homogenates were processed according to the processing method for the plasma sample, and LC–MS quantitative analysis was carried out.
(§2) LC conditions were as follows: column: Waters UPLC BEH C18 column (1.7 μm, 2.1 mm × 50 mm); mobile phase: water (0.1% formic acid and 5 mM ammonium formate)-acetonitrile (85:15, v/v), flow rate: 0.3 ml/min; column temperature: 35 ℃. Mass spectrum conditions were as follows: electric spray ion source (ESI); multiple response monitoring (MRM) mode; positive ion scanning mode; air curtain pressure (N2) was 40 psi, impact air pressure (N2) was 9 psi, atomization gas pressure (N2) was 55 psi, auxiliary gas pressure (N2) was 55 psi; spray voltage was 5500 V; atomization temperature was 550 ℃.

[2] = Pharmacokinetic study in plasma (LC-MS); conditions: C57BL/6, mouse
Experimental: as §1
Blood samples were collected at 5 min, 10 min, 15 min, 30 min, 45 min, 1 h, 2 h, 4 h, 8 h, 12 h and 24 h after administration. These samples were immediately placed in a tube containing heparin sodium (1000 U/mL). Plasma samples were obtained after centrifugation at 4000 rpm for 10 min and an esterase inhibitor was added to the samples. Subsequently, methanol was added to the plasma in the ratio of 1:2 (plasma-methanol) and centrifuged at 14,000 rpm for 5 min to obtain liquid supernatant for quantitative analysis by LC–MS.
as §2

[3] = Solubility of the conjugate (description); assay type: physicochemical

Row | Structure (SMILES) | Tmax ([1]; brain, inhaled or intranasal) | Tmax ([1]; brain, iv) | bioavailability ([1]; brain, other: intranasal) | bioavailability ([2]; in vivo) | other results
1 | C[C@H]1[C@H](OC(=O)CCC(=O)O)O[C@@H]2O[C@@]3(C)CC[C@H]4[C@H](C)CC[C@@H]1[C@@]24OO3 [ATS, artesunate] | 210 ± 60 min | 495 ± 311 min | ~415% | ~91% | Tmax ([2]; plasma, inhaled or intranasal): 144 ± 225 min; Tmax ([2]; plasma, iv): 17.5 ± 18.5 min
2 | C[C@H]1[C@@H](O)O[C@@H]2O[C@@]3(C)CC[C@H]4[C@H](C)CC[C@@H]1[C@@]24OO3 [DHA, dihydroartemisinin] | 23.8 ± 17 min | 7.5 ± 2.88 min | ~449% | – | –
3 | Cc1nc(C)c(C)nc1C [TMP, tetramethylpyrazine hydrochloride] | – | – | – | ~97% | bioavailability ([1]; in vivo): ~183%; Tmax ([1]; in vivo, inhaled or intranasal): 4.98 min; Tmax ([1]; in vivo, iv): 4.98 min; Tmax ([2]; in vivo, inhaled or intranasal): 4.98 min; Tmax ([2]; in vivo, iv): 6.24 ± 2.52 min
4 | CC(C)CCCC(C)C1CCC2C3CC=C4CC(OC(=O)CCCCCCCCCCOc5ccc(OC6OC(CO)C(O)C(O)C6O)cc5)CCC4(C)C3CCC12C (stereo not shown) [cholesterol-undecanoate-glucose conjugate] | – | – | – | – | solubility [3]: soluble in ethanol and tetrahydrofuran
